# Values joined by “and” are separate entries in the source; they are usually repeats but may differ in a detail not shown here. Identical values can stand only once.
# Tested on: Tetrahymena pyriformis
# Assay: 48 h IGC50 (-log10 mol/L); higher = more toxic
row,Structure (SMILES),48 h IGC50 (-log10 mol/L)
1,O=[N+]([O-])c1ccc(CBr)cc1,5.31
2,CC(C)(C)CCO,2.26
3,Cc1cc(C)c(O)c(C(C)(C)C)c1,4.16
4,CC1=CC(=O)c2c(O)cccc2C1=O,5.2
5,CC(C)(C)c1ccc(CO)cc1,3.48
6,CCOC(=O)C(Br)C(=O)OCC,5.21
7,CCCC(=O)NN,2.03
8,CCC(O)c1ccccc1 (stereo unspecified),2.57
9,OCC(Br)(Br)Br,3.11
10,C=CCCO,1.3
11,CC(C)CCCO,2.36
12,O=C(CBr)C(=O)CBr,4.76
13,Cc1ccc(Cl)c(O)c1,3.54
14,CCOC(=O)C(C)Br (stereo unspecified),4.06
15,N#Cc1ccncc1,2.18
16,OCc1ccc(-c2ccccc2)cc1,3.92
17,Oc1ccc(O)c(Br)c1,4.68
18,CC(CCO)c1ccccc1 (stereo unspecified),3.01
19,CC(C)C(N)CO (stereo unspecified),2.42
20,CCC(O)CO (stereo unspecified),0.952
21,C/C=C/C(=O)OC(C)CC (stereo unspecified),2.58
22,CCCCCCCCCCCC#N,4.9

row,Structure (SMILES),48 h IGC50 (-log10 mol/L)
1,O=[N+]([O-])c1ccc(O)c(F)c1,4.07
2,CC(Br)C(N)=O (stereo unspecified),3
3,COc1ccc(C(=O)c2ccccc2)c(O)c1,4.42
4,CC=CCO,1.53
5,CCOC(=O)C[C@H](C)O,1.47
6,OC1CCCCC1,2.23
7,CCc1cccc(CC)c1N,3.31
8,O=C(O)CCCC(=O)O,2.36
9,CCc1cc(O)ccc1Cl,4.08
10,CCOS(=O)OCC,2.01
11,COC(=O)c1ccc(C(=O)OC)c([N+](=O)[O-])c1,3.43
12,CCOC(=O)CCBr,3.13
13,CC1CCOC1=O (stereo unspecified),1.81
14,CCCCCCCCCCC#N,4.65
15,COC(=O)CCBr,4.03
16,CCCCOC(=O)c1ccccc1,3.92
17,NC(CO)CO,1.32
18,CC(C)(C)CO,2.13
19,N#Cc1ccc(C=O)cc1,3.04
20,CCCCCCCCC(C)O (stereo unspecified),3.99
21,C=C(C=O)CC,3.91
22,O=[N+]([O-])c1ccc(Cl)nc1,3.8

row,Structure (SMILES),48 h IGC50 (-log10 mol/L)
1,CCCCCCCCCCO,4.33
2,Cc1ccc2nc(C)ccc2c1,3.68
3,CC(C)=CCO,1.76
4,Cc1cccc(CO)c1,2.76
5,CC(C)C#N,1.38
6,CC(O)C(c1ccccc1)c1ccccc1 (stereo unspecified),3.75
7,Cc1ccc(-c2ccccc2)cc1,4.66
8,CC(=O)OCCCCBr,3.39
9,CC(C)C(Br)C(=O)O (stereo unspecified),2.45
10,CCOC(=O)C[C@H](O)CC#N,1.36
11,N#CCCCC#N,1.36
12,CC(C)(C)C(N)=O,1.52
13,CC(=O)C(C)=O,2.77
14,OCCCCc1ccccc1,3.12
15,Oc1ccc(Cl)c(O)c1,3.13
16,Sc1ccccc1,4.66
17,Cc1cnccn1,1.91
18,NC(=O)CBr,4.52
19,CCCCCCCN,3.21
20,CC(C)(C)c1cc([N+](=O)[O-])c(O)c([N+](=O)[O-])c1,4.8
21,COC(=O)c1ccccc1,3.23
22,O=[N+]([O-])c1cc(Br)ccc1O,4.87

row,Structure (SMILES),48 h IGC50 (-log10 mol/L)
1,O=[N+]([O-])c1ccccc1Br,3.75
2,CC(=O)NN,1.62
3,Nc1cc([N+](=O)[O-])cc(Cl)c1O,4.2
4,C=COC(=O)CCC,2.62
5,Oc1ccc(-c2ccc(Br)cc2)cc1,5.31
6,S=C=NCCCN=C=S,5.72 and 5.74
7,O=C(O)c1c(Cl)cc(Cl)cc1Cl,2.59
8,CCCN=C=S,4.69
9,CCOC(=O)C(C)(C)Br,3.15
10,COc1cc(C#N)ccc1O,2.97
11,CC(=O)OCCCCCBr,3.29
12,COC(=O)c1ccc(C=O)cc1,3.3
13,O=Cc1ccccc1F,3.08
14,Oc1cccc(Br)c1,4.15
15,CN(C)Cc1ccccc1,3.12
16,O=[N+]([O-])c1ccccc1CO,2.85
17,CC(C)CC(=O)OCCc1ccccc1,4.1
18,CC(C)CCC#N,2.21
19,C#CC(C)(O)CCC (stereo unspecified),2.1
20,CCCCCCC#CCCO,4.13

# Source: EPA's aquatic toxicity sets
